Values joined by “and” are separate entries in the source; they are usually repeats but may differ in a detail not shown here. Equal values may be shown once. Active and inactive are the calls of the source. The calls are words filed in the database; no cut-off is given here.

In assay [1] the target is Isocitrate dehydrogenase [NADP] cytoplasmic (Homo sapiens, UniProt O75874, R132H). Description: Inhibition of IDH1 R132H mutant (unknown origin) using alpha-ketoglutarate and NADPH incubated for 60 mins by fluorescence based assay.
Isocitrate dehydrogenase [NADP] cytoplasmic (Homo sapiens, UniProt O75874, R132H), sequence (O75874 2-414 R132H limits assumed): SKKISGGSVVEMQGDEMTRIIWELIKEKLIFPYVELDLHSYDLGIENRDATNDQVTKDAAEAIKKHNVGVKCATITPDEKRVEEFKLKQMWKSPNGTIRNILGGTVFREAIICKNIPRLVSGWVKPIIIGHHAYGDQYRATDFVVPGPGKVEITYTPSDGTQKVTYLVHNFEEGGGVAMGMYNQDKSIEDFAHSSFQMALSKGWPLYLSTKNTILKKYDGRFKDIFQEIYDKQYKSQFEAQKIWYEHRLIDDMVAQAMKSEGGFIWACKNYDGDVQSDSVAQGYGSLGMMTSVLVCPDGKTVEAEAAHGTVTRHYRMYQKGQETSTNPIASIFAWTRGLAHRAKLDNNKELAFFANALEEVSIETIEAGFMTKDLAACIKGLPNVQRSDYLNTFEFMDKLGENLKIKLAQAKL
Assay [2] addresses Isocitrate dehydrogenase [NADP] cytoplasmic (Homo sapiens, UniProt O75874). Briefly: Inhibition of wild type IDH1 (unknown origin) using alpha-ketoglutarate and NADPH incubated for 30 mins by fluorescence based assay.

Isocitrate dehydrogenase [NADP] cytoplasmic (Homo sapiens, UniProt O75874), sequence (O75874 whole entry): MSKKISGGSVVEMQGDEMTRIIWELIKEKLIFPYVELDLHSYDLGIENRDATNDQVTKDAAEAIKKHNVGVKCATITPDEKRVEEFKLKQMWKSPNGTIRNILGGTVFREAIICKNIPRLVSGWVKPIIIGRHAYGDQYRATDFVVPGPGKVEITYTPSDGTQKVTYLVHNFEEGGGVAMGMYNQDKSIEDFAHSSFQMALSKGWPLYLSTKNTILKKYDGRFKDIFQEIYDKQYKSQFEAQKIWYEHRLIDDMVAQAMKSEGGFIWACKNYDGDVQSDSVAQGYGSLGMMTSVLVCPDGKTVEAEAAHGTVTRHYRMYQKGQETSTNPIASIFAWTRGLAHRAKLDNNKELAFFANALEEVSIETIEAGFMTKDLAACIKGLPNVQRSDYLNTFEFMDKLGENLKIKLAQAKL

On to `O=C(NC1C2CC3CC1CC(O)(C3)C2)c1ccc(N2C[C@@H]3[C@H](C2)[C@H]3C(=O)O)nc1SC1CCCC1` (stereo not given in full), for which the concentration for half-maximal inhibition (IC50) in assay [1] is 3 µM and 1.6 µM. Further, in assay [2], the inhibition result was “inactive”.

As to `CC(C)CCSc1nc(N2C[C@@H]3[C@H](C2)[C@H]3C(=O)O)ccc1C(=O)NC1C2CC3CC1CC(O)(C3)C2` (stereo not given in full), the IC50 in assay [1] is 1.63 µM and 1.4 µM. The inhibition result in assay [2] is “inactive”.

With `O=C(O)C[C@H]1CCN(c2ccc(C(=O)NC3C4CC5CC3CC(O)(C5)C4)c(SC3CCCCC3)n2)C1` (stereo not given in full), in assay [1], the half-maximal inhibitory concentration (IC50) is 2.3 µM and 2.2 µM. For the same compound, the inhibition entry in assay [2] was “inactive”.

Consider `CC(C)CCOc1nc(N2C[C@@H]3[C@H](C2)[C@H]3C(=O)O)ccc1C(=O)NCc1cccnc1`, for which the 50% inhibitory concentration (IC50) in assay [1] worked out at 5.6 µM.

As to `CC(C)CCSc1nc(N2CCC[C@@H](CC(=O)O)C2)ccc1C(=O)NC1C2CC3CC1CC(O)(C3)C2` (stereo not given in full), the 50% inhibitory concentration (IC50) in assay [1] is 10.1 µM and 7.6 µM. In addition, the inhibition entry in assay [2] was “inactive”.

`COc1cccc(COc2nc(N3CCC[C@@H](CC(=O)O)C3)ccc2C(=O)NC2CCCCC2)c1` came in with an IC50 in assay [1] of 12 µM.

In the case of `O=C(O)C[C@@H]1CCCN(c2ccc(C(=O)NC3CCCCC3)c(OCCC3CC3)n2)C1`, the concentration for half-maximal inhibition (IC50) in assay [1] was determined as 8 µM.

In turn, `CC1CC1COc1nc(N2CCC[C@@H](CC(=O)O)C2)ccc1C(=O)NC1CCCCC1` (stereo not given in full) yielded an IC50 in assay [1] of 14 µM.

`CC(C)CCOc1nc(N2C[C@@H]3[C@H](C2)[C@H]3C(=O)O)ccc1C(=O)Nc1ccc(CO)cc1` gave a half-maximal inhibitory concentration (IC50) in assay [1] of 5.6 µM.

Take `CC(C)CCOc1nc(N2C[C@@H]3[C@H](C2)[C@H]3C(=O)O)ccc1C(=O)NCc1ccc(Cl)cc1`: the concentration for half-maximal inhibition (IC50) in assay [1] was 17 µM. This IC50 lies about 3-fold higher than the previous one.

In assay [1], `CC(C)CCOc1nc(N2C[C@@H]3[C@H](C2)[C@H]3C(=O)O)ccc1C(=O)N[C@H](CO)c1ccccc1` returned an IC50 of 12 µM. The IC50 values of the last two compounds are within 1.5-fold of each other.

In turn, `O=C(O)C[C@@H]1CCCN(c2ccc(C(=O)NC3CCCCC3)c(SCc3ccccc3)n2)C1` registered an IC50 in assay [1] of 39 µM. Compared with the last compound, the IC50 is about 3.2-fold higher.

In assay [1], `O=C(O)C[C@@H]1CCCN(c2ccc(C(=O)NC3C4CC5CC3CC(O)(C5)C4)c(OCc3ccccc3Cl)n2)C1` (stereo not given in full) returned a concentration for half-maximal inhibition (IC50) of 2.3 µM.

For `O=C(O)C[C@@H]1CCCN(c2ccc(C(=O)NC3CCCCC3)c(OCCc3ccccc3)n2)C1`, the IC50 in assay [1] came to 43 µM.

In assay [1], `CC(Oc1nc(N2CCC[C@@H](CC(=O)O)C2)ccc1C(=O)NC1CCCCC1)C1CC1` (stereo not given in full) gave an IC50 of 20 µM.

In assay [1], `CC(C)CCOc1nc(N2C[C@@H]3[C@H](C2)[C@H]3C(=O)O)ccc1C(=O)Nc1ccc(O)cc1` gave an IC50 of 5 µM.

In assay [1], `COc1ccc(COc2nc(N3CCC[C@@H](CC(=O)O)C3)ccc2C(=O)NC2CCCCC2)cc1` yielded a half-inhibitory concentration (IC50) greater than 50 µM.

As for `CC(C)CCOc1nc(N2C[C@@H]3[C@H](C2)[C@H]3C(=O)O)ccc1NS(=O)(=O)C1CCCCC1`, in assay [1], the IC50 is 8.6 µM.

As to `O=C(NC1C2CC3CC1CC(O)(C3)C2)c1ccc(N2C[C@@H]3[C@H](C2)[C@H]3C(=O)O)nc1OCc1ccccc1` (stereo not given in full), the IC50 in assay [1] was found to be 27 µM. Against the preceding compound, the IC50 is about 3.1-fold higher.

`O=C(O)C[C@@H]1CCCN(c2ccc(C(=O)NC3CCCCC3)c(OCc3ccccc3Cl)n2)C1`: in assay [1], half-maximal inhibition (IC50) was put at 7 µM.

In assay [1], `CC(C)CCOc1nc(N2C[C@@H]3[C@H](C2)[C@H]3C(=O)O)ccc1C(=O)NCc1cccc(Cl)c1` had an IC50 of 6.5 µM. This IC50 and that of the compound before are within 1.5-fold of each other.

`O=C(O)C[C@@H]1CCCN(c2ccc(C(=O)NC3CCCCC3)c(OCc3ccccc3)n2)C1` yielded an IC50 in assay [1] of 8.6 µM.

In the case of `CC(C)CCOc1nc(N2C[C@@H]3[C@H](C2)[C@H]3C(=O)O)ccc1C(=O)Nc1cccc(O)c1`, in assay [1], the IC50 turned out to be 2.9 µM.

With `CCCCOc1nc(N2CCC[C@@H](CC(=O)O)C2)ccc1C(=O)NC1CCCCC1`, half-maximal inhibition in assay [1] (IC50) was put at 12 µM.

In assay [1], `CC1(C)CC(Oc2nc(N3CCC[C@@H](CC(=O)O)C3)ccc2C(=O)NC2CCCCC2)C1` gave a half-maximal inhibitory concentration (IC50) of 7.2 µM.

For the compound `CN(C)CCOc1nc(N2CCC[C@@H](CC(=O)O)C2)ccc1C(=O)NC1CCCCC1`, the 50% inhibitory concentration (IC50) in assay [1] is greater than 50 µM.

One may read the IC50 as the concentration needed to halve the response being measured. A high value points to weaker potency in that assay.
